Results from article PMC9124866, “Structure-Activity Relationships of Dopamine Transporter Pharmacological Chaperones” (Frontiers in Cellular Neuroscience, 2022).
Where two headings read alike, the source gives them in different places.

Key:
Assay type in all cases: cell-based
YFP-HA-βlac-DAT = YFP-HA-βlac-DAT (Homo sapiens, UniProt Q01959); assay: β-lactamase (βlac) surface expression assay
Experimental: The βlac surface expression assay was performed by following the method outlined in [Lam et al. (2013)] and [Beerepoot et al. (2015], [2016)]. The assay substrate nitrocefin (BD biosciences) was dissolved in dimethyl sulfoxide (DMSO) at a concentration of 10 mM and frozen at −80°C. Immediately before use, it was thawed and diluted to a final concentration of 100 μM in phosphate buffered saline (PBS). Cells (1 × 10^5/well) were seeded into a poly-D-lysine-coated 48-well plate and incubated for 24 h, prior to drug treatment. Drugs were added to individual wells at varying concentrations and incubated for 16 h. Subsequently, the media was aspirated, and the cells were washed twice with PBS. After removal of the final PBS wash, 200 μL of the nitrocefin solution was added to each well and the absorbance was immediately read. The EPOCH microplate spectrophotometer (BioTek) was used to measure absorbance (486 nm) for each well every minute for 30 min. The rate of reaction (slope of the curve) was used as the readout for the assay ([Beerepoot et al., 2015]). To determine suitable concentration ranges for each drug, they were dissolved in PBS or DMSO at the highest concentration possible. From here, the solutions were serial diluted 1/10 to yield 8 different concentrations. βLAC cells were then treated with the varying drug concentrations and cell viability was recorded using light microscopy. For additional measure, nitrocefin was added and the absorbance was read. For certain cases, Trypan Blue was used to quantitatively differentiate increased cell death from reduced cell division. […] Five or six doses were generally used in subsequent dosing experiments, starting at the highest non-toxic concentration.
Data analysis was performed using GraphPad Prism (GraphPad Software, La Jolla, CA). Linear regression analysis was performed on βLAC time points to determine the slope, thus the rate of reaction, for comparison. Furthermore, the slope was also used to determine the degree of dopamine uptake in the dopamine uptake assays. Non-linear regression, fitting to the log(agonist) vs. response and log(inhibitor) vs. response model curve, was used to determine dose-response relationships of surface expression and uptake assays, respectively. One-way ANOVA with Dunnett’s post hoc-test was used for the β-lactamase assay and one-way ANOVA with Bonferroni correction was used for western blot analysis.
Among these were RTI-1, RTI-2, RTI-5, RTI-6, RTI-11, RTI-20, and PAL-1007. […] The EMax values of all the analyzed drugs are included in Figure 1.
The pharmacological chaperone ability of the 15 ibogaine and tryptamine analogs, shown in Figure 3, were measured using the βlac surface expression assay. HEK cells expressing YFP-HA-βlac-DAT were incubated overnight with these compounds at concentrations varying by log and half-log dilutions, starting at 100 μM final concentration. […] Furthermore, it was important to determine whether the β-carboline analogs could also elicit a chaperone effect because they are not classified as DAT ligands ([Cao et al., 2007]). […] Removing the nitrogen from the ring reduced efficacy as observed with frovatriptan (103 ± 1.4%). […] Evodiamine (54 ± 1.7%) had no chaperone ability and caused a substantial reduction in the surface expression of DAT. Dose-response curves were generated to assess the pharmacological chaperone potencies of select compounds (Figure 4).

WT DAT (YFP-HA-DAT) = target: T1, WT DAT (YFP-HA-DAT) (Homo sapiens, UniProt Q01959); assay: Western blot of mature WT DAT protein levels; conditions: overnight 100 μM
T1 construct: expressed in transfected cells; host or cells: HEK293
Experimental: (§1) Cells (1 × 10^6 cells/well) were seeded onto a 6-well plate and incubated for 24 h. Cells were then treated with drugs and incubated for 16 h. After the incubation period, cells were lysed in RIPA buffer supplemented with protease inhibitors (working concentrations: pepstatin A, 5 μg/mL; leupeptin, 10 μg/mL; aprotinin, 1.5 μg/mL; benzamidine, 0.1 μg/mL; PMSF, 0.1 mM) on ice. At 4°C, cell lysates were gently shaken for 15 min followed by centrifugation at 15,000 rpm for 15 min to pellet debris. The Pierce BCA protein assay kit (Thermo Fisher Scientific, Canada) was used to determine the protein concentration of the supernatant. To reach a concentration of 40 μg of protein per 20 μL, samples were diluted in fresh RIPA buffer with 12.5% Laemmli sample buffer and 2.5% β-Mercaptoethanol prior to being heated to 55°C. The protein was then loaded on a 7.5 or 10% SDS-PAGE gel and run at 100 V for approximately an hour or until the dye front reached the bottom of the gel. Next, protein was transferred to a PVDF membrane at 22 V for 16 h or 100 V for 1 h. Blots were blocked with LI-COR blocking buffer for 1 h and incubated for 1 h at room temperature with rabbit anti-GFP (1:1,000 dilution; Life Technologies, cat#A11122). After washing three times with TBST, blots were incubated with goat anti-rabbit IRDye-680RD secondary antibody (1:15,000; LI-COR, cat#926-68071). As a loading control, blots were incubated with mouse anti-GAPDH (1:5,000, Sigma-Aldrich, Canada, cat#G8795) prior to secondary antibody goat anti-mouse IRDye-800GR (1:5,000 dilution, Rockland, Limerick, PA, cat#610-132-007). All antibodies were diluted in LI-COR blocking buffer. Additionally, REVERT total protein staining (LI-COR, Lincoln, NE) was used as a loading control. […] Mature, fully glycosylated DAT (mDAT = 110 kDa) and immature, ER-resident DAT (iDAT = 75 kDa) were visualized using the Odyssey Imaging System (LI-COR, Lincoln, NE) and Image Studio Version 5.2 software (Supplementary Figure 1).
(§2) We next assessed whether drugs that increase DAT surface expression also increase total protein levels of DAT. Cells expressing YFP-HA-DAT were incubated with select test compounds and DAT protein levels were examined by western blot. The effects of the compounds were assessed on WT DAT and K590A DAT. The K590A mutant is a well-characterized ER-retained, trafficking-deficient DAT mutant ([Miranda et al., 2004]) that can be rescued by pharmacological chaperones ([Beerepoot et al., 2016]).
(§3) FIGURE 5 Effect of noribogaine, tetrahydroharmine, PAL-594, bicifadine, and RTI-20 on WT and K590A DAT expression. […] (B) Quantification of WT mDAT protein levels. […] (D) Quantification of K590A mDAT protein levels. […]

K590A DAT = target: T2, K590A DAT (Homo sapiens, UniProt Q01959, K590A); assay: Western blot of mature K590A DAT protein levels; conditions: overnight treatment
T2 construct: expressed in transfected cells; host or cells: HEK293
Experimental: as §1, §2, §3

[1] = HEK293, read-out: EMax (%), WT DAT surface expression, HEK cells expressing YFP-HA-βlac-DAT, overnight (16 h) incubation, up to 100 μM, normalized to vehicle, assumed effective EMax
[2] = HEK293, HEK cells expressing YFP-HA-βlac-DAT, overnight (16 h) incubation, up to 100 μM, normalized to vehicle, assumed effective EMax, read-out: EMax (%), WT DAT surface expression

YFP-HA-βlac-DAT, sequence (Q01959 1-171 limits assumed): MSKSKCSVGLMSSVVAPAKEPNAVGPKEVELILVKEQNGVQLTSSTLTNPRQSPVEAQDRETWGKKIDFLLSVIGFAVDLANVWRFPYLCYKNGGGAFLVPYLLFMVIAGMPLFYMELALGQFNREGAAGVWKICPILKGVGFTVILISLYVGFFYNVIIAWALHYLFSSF
YFP-HA-βlac-DAT, sequence (Q01959 237-620 limits assumed): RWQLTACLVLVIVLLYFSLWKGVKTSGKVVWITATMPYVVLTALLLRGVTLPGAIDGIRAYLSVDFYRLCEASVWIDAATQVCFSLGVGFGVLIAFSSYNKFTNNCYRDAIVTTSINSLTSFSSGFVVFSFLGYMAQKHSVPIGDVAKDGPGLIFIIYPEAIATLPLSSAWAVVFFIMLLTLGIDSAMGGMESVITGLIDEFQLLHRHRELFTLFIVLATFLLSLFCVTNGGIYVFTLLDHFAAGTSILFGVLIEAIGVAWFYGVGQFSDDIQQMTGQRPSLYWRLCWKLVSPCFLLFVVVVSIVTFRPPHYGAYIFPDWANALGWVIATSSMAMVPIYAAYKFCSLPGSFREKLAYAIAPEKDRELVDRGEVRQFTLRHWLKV
T2 sequence (Q01959 whole entry K590A): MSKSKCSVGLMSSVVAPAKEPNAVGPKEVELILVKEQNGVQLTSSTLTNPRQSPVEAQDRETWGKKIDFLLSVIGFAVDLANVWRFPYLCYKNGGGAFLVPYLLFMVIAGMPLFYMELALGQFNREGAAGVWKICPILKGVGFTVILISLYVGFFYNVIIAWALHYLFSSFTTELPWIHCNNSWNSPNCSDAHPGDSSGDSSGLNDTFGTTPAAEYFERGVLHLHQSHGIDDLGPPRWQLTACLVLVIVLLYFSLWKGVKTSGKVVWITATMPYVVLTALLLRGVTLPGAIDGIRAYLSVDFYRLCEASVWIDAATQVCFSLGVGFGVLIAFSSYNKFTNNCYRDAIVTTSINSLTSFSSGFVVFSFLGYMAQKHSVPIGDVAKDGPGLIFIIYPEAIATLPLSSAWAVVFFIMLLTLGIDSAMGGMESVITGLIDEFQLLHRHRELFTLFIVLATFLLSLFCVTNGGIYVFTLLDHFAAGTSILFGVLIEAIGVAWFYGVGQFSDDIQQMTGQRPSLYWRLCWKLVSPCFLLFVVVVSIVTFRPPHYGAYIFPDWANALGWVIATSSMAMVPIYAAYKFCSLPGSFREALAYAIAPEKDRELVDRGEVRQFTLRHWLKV
T1 sequence (Q01959 whole entry): as the sequence (Q01959 whole entry K590A) above, with A590K counted along it

| Compound | Emax (YFP-HA-βlac-DAT; [2]) [%] | further results |
| --- | --- | --- |
| CC1NC(C)(C)COC1(O)c1cccc(Cl)c1 (centres unmarked) [6-Hydroxybupropion, 6-hydroxybupropion, reference compound] |  | Emax (YFP-HA-βlac-DAT; [1]): 148 ± 5.4% |
| CN[C@@H](C)[C@H](O)c1ccccc1 [Ephedrine, ephedrine, reference compound] |  | Emax (YFP-HA-βlac-DAT; HEK293, HEK cells expressing YFP-HA-βlac-DAT, overnight incubation, normalized to vehicle, read-out: EMax (%), WT DAT surface expression): 128 ± 4.7% |
| CN1CCc2[nH]c3ccc(F)cc3c2CC1 [Fluorogainalog, fluorogainalog] |  | Emax (YFP-HA-βlac-DAT; [1]): 219 ± 29% |
| CN[C@@H]1CCc2[nH]c3ccc(C(N)=O)cc3c2C1 [Frovatriptan, frovatriptan, reference compound] |  | Emax (YFP-HA-βlac-DAT; [1]): 103 ± 1.4% |
| COc1ccc2[nH]c3c(c2c1)CCN(C)CC3 [Ibogainealog, ibogainealog] | 169 ± 13.7 |  |
| CN1CCc2[nH]c3ccccc3c2CC1 [Ibogaminalog] | 175 ± 12.9 |  |
| CC[C@H]1C[C@@H]2C[C@H]3c4[nH]c5ccccc5c4CCN(C2)[C@@H]13 [Ibogamine, reference compound] |  | Emax (YFP-HA-βlac-DAT; [1]): 202 ± 7.1% |
| CN1CCc2[nH]c3ccc(O)cc3c2CC1 [Noribogainalog, noribogainalog] | 185 ± 17.9 |  |
| CC(NC1CC1)C(=O)c1cccc(Cl)c1 (centres unmarked) [PAL-433] | 93 ± 10.4 |  |
| CC(NC1CC1)C(=O)c1cccc(Br)c1 (centres unmarked) [PAL-586] | 93 ± 5.8 |  |
| CCCN(CCC)CCc1c[nH]c2ccc(OC)cc12 [PAL-709] | 97 ± 7.2 |  |
| COc1cccc(C(=O)C(C)NC2CC2)c1 (centres unmarked) [PAL-789] | 93 ± 10.6 |  |
| CC(NC1CC1)C(=O)c1ccc(F)c(Cl)c1 (centres unmarked) [PAL-819] | 90 ± 5 |  |
| CC(NC1CCC1)C(=O)c1ccccc1 (centres unmarked) [PAL-933] | 114 ± 2.3 |  |
| Cc1ccc(C(=O)C(C)N(C)Cc2ccccc2)cc1 (centres unmarked) [PAL-945] | 85 |  |
| CC(NC1CCC1)C(=O)c1cccc(Cl)c1 (centres unmarked) [PAL-1007] | 136 ± 9.1 |  |
| CC(NC1CCC1)C(=O)c1cccc(F)c1 (centres unmarked) [PAL-1008] | 96 ± 7.3 |  |
| CNC(C)C(=O)c1cccc(C)c1 (centres unmarked) [PAL-1101] | 105 ± 3.6 |  |
| C[C@@H](NC1CCC1)C(=O)c1cccc(Cl)c1 [PAL-1132] | 110 |  |
| C[C@H](NC1CCC1)C(=O)c1cccc(Cl)c1 [PAL-1134] | 98 |  |
| CC(NC1CC1)C(=O)c1cccc(C(F)(F)F)c1 (centres unmarked) [PAL-1178] | 92 ± 1.2 |  |
| Cc1ccc(C(=O)C(C)N)cc1 (centres unmarked) [PAL-1270] | 104 ± 2.3 |  |
| CC(NC1CCC1)C(=O)c1c[nH]c2ccccc12 (centres unmarked) [PAL-1407] | 98 ± 3.9 |  |
| Cc1cccc(C(=O)C(C)NC2CCC2)c1 (centres unmarked) [PAL-1411] | 110 ± 4.5 |  |
| CC(NC1CCC1)C(=O)c1ccc2c(c1)OCO2 (centres unmarked) [PAL-1414] | 102 |  |
| CC(C)N(CCc1c[nH]c2cccc(O)c12)C(C)C [PAL-1416] | 127 ± 6.6 |  |

| Compound | Emax (YFP-HA-βlac-DAT; [2]) [%] | further results |
| --- | --- | --- |
| CC(NC(C)(C)C)C(=O)c1ccccc1 (centres unmarked) [PAL-1463] | 117 |  |
| COc1cccc(C(=O)C(C)NC(C)(C)C)c1 (centres unmarked) [PAL-1465] | 91 |  |
| CC(NC(C)(C)C)C(=O)c1cccc(F)c1 (centres unmarked) [PAL-1466] | 100 |  |
| CC(C)NC(C)C(=O)c1cccc(Cl)c1 (centres unmarked) [PAL-1467] | 100 ± 4 |  |
| CC(Cc1cccc(Cl)c1)NC(C)(C)C (centres unmarked) [PAL-1468] | 117 |  |
| COc1ccc2[nH]c3c(c2c1)CCNC3 [Pinoline, pinoline, reference compound] |  | Emax (YFP-HA-βlac-DAT; [1]): 141 ± 4.4% |
| CC(NC(C)(C)C)C(=O)c1cccc(Br)c1 (centres unmarked) [RTI-1] | 161 ± 2.7 |  |
| CC(NC(C)(C)C)C(=O)c1ccc(Br)cc1 (centres unmarked) [RTI-2] | 127 ± 2.6 |  |
| CC(NC(C)(C)C)C(=O)c1ccc(Cl)cc1 (centres unmarked) [RTI-3] | 113 ± 6.2 |  |
| CC(NC(C)(C)C)C(=O)c1ccc(Cl)c(Cl)c1 (centres unmarked) [RTI-4] | 110 ± 5.7 |  |
| Cc1cccc(C(=O)C(C)NC(C)(C)C)c1 (centres unmarked) [RTI-6] | 134 ± 9.6 |  |
| CC(C(=O)c1cccc(Cl)c1)N1CCCCC1 (centres unmarked) [RTI-7] | 102 ± 3.9 |  |
| CC(C(=O)c1cccc(Cl)c1)N(C)C (centres unmarked) [RTI-8] | 107 ± 6.3 |  |
| CC(C(=O)c1cccc(Cl)c1)N(C)C(C)(C)C (centres unmarked) [RTI-9] | 87 ± 14.6 |  |
| CC(CNC(C)(C)C)C(=O)c1cccc(Cl)c1 (centres unmarked) [RTI-10] |  | Emax (YFP-HA-βlac-DAT; [1]): 36 ± 1.4% |
| CCC(NC(C)(C)C)C(=O)c1cccc(Cl)c1 (centres unmarked) [RTI-11] | 131 ± 3.7 |  |
| CC(NC(C)(C)C)C(=O)c1ccc(F)c(F)c1 (centres unmarked) [RTI-13] | 99 ± 4.3 |  |
| CC(NC(C)(C)C)C(=O)c1cc(Cl)cc(Cl)c1 (centres unmarked) [RTI-17] | 78 ± 2.8 |  |
| CC1NC(C)(C)COC1(O)c1cc(F)cc(F)c1 (centres unmarked) [RTI-18] | 122 |  |
| Cc1ccc(C(=O)C(C)NC(C)(C)C)cc1Cl (centres unmarked) [RTI-20] | 147 ± 8 | mature WT DAT (mDAT) protein levels (WT DAT (YFP-HA-DAT)): significantly increase |
| CC1NC(C)(C)COC1(O)c1cc(Cl)cc(Cl)c1 (centres unmarked) [RTI-21] | 103 ± 3.7 |  |
| COc1ccc2c3c([nH]c2c1)CCN(C)CC3 [Tabernanthalog, tabernanthalog] | 179 ± 9.1 |  |
| COc1ccc2c3c([nH]c2c1)C(C)NCC3 (centres unmarked) [Tetrahydroharmine, tetrahydroharmine] |  | Emax (YFP-HA-βlac-DAT; [1]): 137 ± 6.8%; K590A DAT (mDAT) protein levels (K590A DAT): statistically significant effect |
| NCCc1c[nH]c2ccccc12 [Tryptamine, tryptamine, reference compound] | 104 ± 1.6 |  |
| evodiamine [reference compound] |  | EMax (%), WT DAT surface expression (YFP-HA-βlac-DAT; HEK cells expressing YFP-HA-βlac-DAT, overnight (16 h) incubation, up to 100 μM, normalized to vehicle, assumed effective EMax): 54 ± 1.7% |
